Values of other authors, collected in patent US20170342372A1, “CELL CULTURE MEDIA” (MERCK PATENT GMBH, priority 2014, published 2017).

Details: water / aqueous solvents

Structure (SMILES)	solubility in water (in words)
CC[C@H](C)[C@H](N)C(=O)O [isoleucine]	moderate solubility
CC(C)[C@H](N)C(=O)O [valine]	moderate solubility
CC(C)C[C@H](N)C(=O)O [leucine]	moderate solubility
N[C@@H](CSSC[C@H](N)C(=O)O)C(=O)O [cystine]	poorly soluble
